Source: patent US6737383B1, “Herbicidal oxadiazolidines” (priority 1999, dated 2004)

Legend:
Details in all cases: Preemergence
soybean = experiment: Test B pre/postemergence soybean; type: in vivo, Glycine max
In short: (§1)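 Test chemicals in a non-phytotoxic solvent mixture with surfactant were sprayed preemergence onto planted seeds and postemergence onto plants 2 to 18 cm tall (1- to 4-leaf stage). After twelve to sixteen days in a greenhouse, injury was visually rated against untreated controls from 0 (no effect) to 10 (complete control).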

crabgrass = experiment: Test B pre/postemergence crabgrass; type: in vivo, Digitaria sanguinalis
In short: as §1

blackgrass = experiment: Test B pre/postemergence blackgrass; type: in vivo, Alopecurus myosuroides
In short: as §1

sugar beet = experiment: Test B pre/postemergence sugar beet; type: in vivo, Beta vulgaris
In short: as §1

wild oat = experiment: Test B pre/postemergence wild oat; type: in vivo, Avena fatua
In short: as §1

velvetleaf = experiment: Test B pre/postemergence velvetleaf; type: in vivo, Abutilon theophrasti
In short: as §1

surinam grass = experiment: Test B pre/postemergence surinam grass; type: in vivo, Brachiaria decumbens
In short: as §1

rape = experiment: Test B pre/postemergence rape; type: in vivo, Brassica napus
In short: as §1

giant foxtail = experiment: Test B pre/postemergence giant foxtail; type: in vivo, Setaria faberii
In short: as §1

bedstraw = experiment: Test B pre/postemergence bedstraw; type: in vivo, Galium aparine
In short: as §1

wheat = experiment: Test B pre/postemergence wheat; type: in vivo, Triticum aestivum
In short: as §1

morningglory = experiment: Test B pre/postemergence morningglory; type: in vivo, Ipomoea hederacea
In short: as §1

purple nutsedge = experiment: Test B pre/postemergence purple nutsedge; type: in vivo, Cyperus rotundus
In short: as §1

pigweed = experiment: Test B pre/postemergence pigweed; type: in vivo, Amaranthus retroflexus
In short: as §1

corn = experiment: Test B pre/postemergence corn; type: in vivo, Zea mays
In short: as §1

cocklebur = experiment: Test B pre/postemergence cocklebur; type: in vivo, Xanthium strumarium
In short: as §1

[1] = Rate 62 g/ha, scale of 0 to 10 where 0 is no effect and 10 is complete control
[2] = Rate 125 g/ha, scale of 0 to 10 where 0 is no effect and 10 is complete control
[3] = Rate 250 g/ha, scale 0 (no effect) to 10 (complete control)
[4] = Rate 500 g/ha, scale 0 to 10 (0 no effect, 10 complete control)

## CC(C)N(C(=O)n1oc(=O)n(C(C)C(=S)N(C)C)c1=O)c1ccc(Cl)cc1 (stereo not drawn) [Compound 733]
soybean; [1]
  Soybean plant response rating: 0
soybean; [2]
  Plant response rating, Soybean: 0
soybean; [3]
  Soybean plant response rating: 0
soybean; [4]
  Soybean plant response rating: 0
crabgrass; [1]
  Crabgrass plant response rating: 2
crabgrass; [2]
  Plant response rating, Crabgrass: 5
crabgrass; [3]
  Crabgrass plant response rating: 9
crabgrass; [4]
  Crabgrass plant response rating: 9
blackgrass; [1]
  Blackgrass plant response rating: 4
blackgrass; [2]
  Plant response rating, Blackgrass: 7
blackgrass; [3]
  Blackgrass plant response rating: 8
blackgrass; [4]
  Blackgrass plant response rating: 10
Sugar beet; [1]
  Sugarbeets plant response rating: 0
Sugar beet; [2]
  Plant response rating, Sugarbeets: 0
Sugar beet; [3]
  Sugarbeets plant response rating: 0
Sugar beet; [4]
  Sugarbeets plant response rating: 0
Wild oat; [1]
  Wild oats plant response rating: 2
Wild oat; [2]
  Plant response rating, Wild oats: 2
Wild oat; [3]
  Wild oats plant response rating: 2
Wild oat; [4]
  Wild oats plant response rating: 8
velvetleaf; [1]
  Velvetleaf plant response rating: 0
velvetleaf; [2]
  Plant response rating, Velvetleaf: 0
velvetleaf; [3]
  Velvetleaf plant response rating: 0
velvetleaf; [4]
  Velvetleaf plant response rating: 1
Surinam grass; [1]
  B. signalgrass plant response rating: 6
Surinam grass; [2]
  Plant response rating, B. signalgrass: 6
Surinam grass; [3]
  B. signalgrass plant response rating: 8
Surinam grass; [4]
  B. signalgrass plant response rating: 10
rape; [1]
  Rape plant response rating: 0
rape; [2]
  Plant response rating, Rape: 0
rape; [3]
  Rape plant response rating: 3
rape; [4]
  Rape plant response rating: 5
Giant foxtail; [1]
  Giant foxtail plant response rating: 3
Giant foxtail; [2]
  Plant response rating, Giant foxtail: 6
Giant foxtail; [3]
  Giant foxtail plant response rating: 9
Giant foxtail; [4]
  Giant foxtail plant response rating: 9
bedstraw; [1]
  Bedstraw plant response rating: 0
bedstraw; [2]
  Plant response rating, Bedstraw: 0
bedstraw; [3]
  Bedstraw plant response rating: 0
bedstraw; [4]
  Bedstraw plant response rating: 0
wheat; [1]
  Wheat plant response rating: 0
wheat; [2]
  Plant response rating, Wheat: 0
wheat; [3]
  Wheat plant response rating: 0
wheat; [4]
  Wheat plant response rating: 0
morningglory; [1]
  Morningglory plant response rating: 1
morningglory; [2]
  Plant response rating, Morningglory: 1
morningglory; [3]
  Morningglory plant response rating: 2
morningglory; [4]
  Morningglory plant response rating: 2
Purple nutsedge; [1]
  Nutsedge plant response rating: 0
Purple nutsedge; [2]
  Plant response rating, Nutsedge: 0
Purple nutsedge; [3]
  Nutsedge plant response rating: 0
pigweed; [1]
  Redroot pigweed plant response rating: 0
pigweed; [2]
  Plant response rating, Redroot pigweed: 0
pigweed; [3]
  Redroot pigweed plant response rating: 5
pigweed; [4]
  Redroot pigweed plant response rating: 7
corn; [1]
  Corn plant response rating: 0
corn; [2]
  Plant response rating, Corn: 0
corn; [3]
  Corn plant response rating: 0
corn; [4]
  Corn plant response rating: 0
cocklebur; [1]
  Cocklebur plant response rating: 0
cocklebur; [2]
  Plant response rating, Cocklebur: 0
cocklebur; [3]
  Cocklebur plant response rating: 0
cocklebur; [4]
  Cocklebur plant response rating: 0
